Measurements taken from patent US12024510B2, “Pyrazolopyridine-diamides, their use as insecticide and processes for preparing the same” (PI INDUSTRIES LTD., priority 2017, dated 2024).

What was measured:
Format in all cases: in vivo
Plutella xylostella = test: whole plant or invertebrate; conditions: foliar, cabbage leaf dip, second instar larvae, dead and moribund combined, 72 h after release
Procedure, shortened: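 Compounds milled with zirconia beads into surfactant dispersion (500 ppm stock), diluted in 0.01% Triton-X. Cabbage leaves dipped 10 s, shade-dried 20 min; one second-instar larva per cell, 25 °C, 70% RH. Mortality (dead plus moribund) scored at 72 h.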

Helicoverpa armigera = Helicoverpa armigera diet incorporation method; conditions: third instar larvae, dead and moribund combined, 96 h after release
Procedure, shortened: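 500 ppm stock of compound milled with surfactant and zirconia beads to average particle size below 2 μm, dispersed in DM water, diluted as needed, and mixed into semi-synthetic diet at about 50° C. Single starved third-instar larvae per cell, held at 25° C., 70% RH; dead plus moribund larvae scored as percent mortality at 96 h.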

Spodoptera litura = Spodoptera litura diet incorporation method; conditions: third instar larvae, dead and moribund combined, 96 h after release
Procedure, shortened: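 Compound milled to <2 μm average particle size in surfactant, dispersed in water (500 ppm stock dispersion), then mixed into semi-synthetic diet at ~50° C. One starved third-instar larva per diet cell, 25° C, 70% RH; percent mortality (dead plus moribund) scored at 96 h.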

Measured: mortality at 300 ppm

CCNC(=O)c1c(NC(=O)c2cc(OC)nn2-c2ncccc2Cl)c(C)cc2ccnn12 [Compound 31, 6-(1-(3-chloropyridin-2-yl)-3-methoxy-1H-pyrazole-5-carboxamido)-N-ethyl-5-methylpyrazolo[1,5-a]pyridine-7-carboxamide]
> 70%: all assays above

COCC(C)(C)NC(=O)c1c(NC(=O)c2cc(Br)nn2-c2ncccc2Cl)c(C)cc2ccnn12 [Compound 174, 6-(3-bromo-1-(3-chloropyridin-2-yl)-1H-pyrazole-5-carboxamido)-N-(1-methoxy-2-methylpropan-2-yl)-5-methylpyrazolo[1,5-a]pyridine-7-carboxamide]
> 70%: all assays above

CNC(=O)c1c(NC(=O)c2cc(Br)nn2-c2ncccc2Cl)c(C)cc2ccnn12 [Compound 1, 6-(3-bromo-1-(3-chloropyridin-2-yl)-1H-pyrazole-5-carboxamido)-N,5-dimethylpyrazolo[1,5-a]pyridine-7-carboxamide]
> 70%: all assays above

CNC(=O)c1c(NC(=O)c2cc(OCC(F)(F)F)nn2-c2ncccc2Cl)c(C)cc2ccnn12 [Compound 9, 6-(1-(3-chloropyridin-2-yl)-3-(2,2,2-trifluoroethoxy)-1H-pyrazole-5-carboxamido)-N,5-dimethylpyrazolo[1,5-a]pyridine-7-carboxamide]
> 70%: all assays above

C#CCNC(=O)c1c(NC(=O)c2cc(Br)nn2-c2ncccc2Cl)c(Br)cc2ccnn12 [Compound 57, 5-bromo-6-(3-bromo-1-(3-chloropyridin-2-yl)-1H-pyrazole-5-carboxamido)-N-(prop-2-yn-1-yl)pyrazolo[1,5-a]pyridine-7-carboxamide]
> 70%: all assays above

CCNC(=O)c1c(NC(=O)c2cc(Cn3nnc(C(F)(F)F)n3)nn2-c2ncccc2Cl)c(Cl)cc2ccnn12 [Compound 154, 5-chloro-6-(1-(3-chloropyridin-2-yl)-3-((5-(trifluoromethyl)-2H-tetrazol-2-yl)methyl)-1H-pyrazole-5-carboxamido)-N-ethylpyrazolo[1,5-a]pyridine-7-carboxamide]
> 70%: all assays above

CNC(=O)c1c(NC(=O)c2cc(C(F)(F)F)nn2-c2ncccc2Cl)c(C)cc2ccnn12 [Compound 63, 6-(1-(3-chloropyridin-2-yl)-3-(trifluoromethyl)-1H-pyrazole-5-carboxamido)-N,5-dimethylpyrazolo[1,5-a]pyridine-7-carboxamide]
> 70%: all assays above

COc1cc(C(=O)Nc2c(Cl)cc3ccnn3c2C(=O)NC2CC2)n(-c2ncccc2Cl)n1 [Compound 132, 5-chloro-6-(1-(3-chloropyridin-2-yl)-3-methoxy-1H-pyrazole-5-carboxamido)-N-cyclopropylpyrazolo[1,5-a]pyridine-7-carboxamide]
> 70%: all assays above

COc1cc(C(=O)Nc2c(Br)cc3ccnn3c2C(=O)NC(C)C(F)(F)F)n(-c2ncccc2Cl)n1 (stereo not drawn) [Compound 226, 5-bromo-6-(1-(3-chloropyridin-2-yl)-3-methoxy-1H-pyrazole-5-carboxamido)-N-(1,1,1-trifluoropropan-2-yl)pyrazolo[1,5-a]pyridine-7-carboxamide]
> 70%: all assays above

CSCCNC(=O)c1c(NC(=O)c2cc(Br)nn2-c2ncccc2Cl)c(C)cc2ccnn12 [Compound 37, 6-(3-bromo-1-(3-chloropyridin-2-yl)-1H-pyrazole-5-carboxamido)-5-methyl-N-(2-(methylthio)ethyl)pyrazolo[1,5-a]pyridine-7-carboxamide]
> 70%: all assays above
